Columns and labels:
RAW264.7 [1] = assay: Antiinflammatory activity in mouse RAW264.7 cells assessed as inhibition of LPS-induced nitirc oxide production pretreated followed by LPS challenge and measured after 24 hrs by Griess assay; assay type: functional, cell-based
RAW264.7 [2] = assay: Cytotoxicity against LPS-stimulated mouse RAW264.7 cells at 6.25 to 100 uM by MTT assay; assay type: cell-based; conditions: raw264.7, 100 µM

Structure (SMILES): COC(=O)[C@@H](N)CCCNC(=N)N[N+](=O)[O-] [L-NAME]
- IC50 (RAW264.7 [1]): 58.4 µM

Structure (SMILES): CC(=O)[C@@H]1CC[C@@]2(C)CCC(=O)O[C@@]2(C(C)=O)C1
- Activity (RAW264.7 [2]): Non-Toxic
- IC50 (RAW264.7 [1]): 2.6 µM

Structure (SMILES): CC(=O)[C@@]12C=C([C@](C)(O)CO)CC[C@]1(C)CC[C@@H]2O
- Activity (RAW264.7 [2]): Non-Toxic
- IC50 (RAW264.7 [1]): 7.7 µM

Structure (SMILES): CC(=O)[C@]12C=C([C@@](C)(O)CO)CC[C@@]1(C)CC[C@H]2O
- Activity (RAW264.7 [2]): Non-Toxic
- IC50 (RAW264.7 [1]): 6.8 µM
